Source: article PMC12045974, “T cell toxicity induced by tigecycline binding to the mitochondrial ribosome” (Nature Communications, 2025)
“And” between values parts separate entries of the source, which are not always exact repeats. Equal values may be shown once.

Legend:
[1] = test system: Jurkat T cells; assay: Cell viability assay (CCK-8), Jurkat T cells; format: cell-based, human; settings: for cell vialibity normalized to Vehicle (DMSO): in % (unit assumed)
Experimental: (§1) Cells were seeded in 96-well plates ranging from 2000 to 15,000 cells per well depending on different cell lines and treated with antibiotics in serial dilutions for 72 h (120 h for the preliminary assays) in a humidified incubator (37 °C, 5% CO2) in 100 μl medium (DMEM with 10% FBS, 2.05 mM L-glutamine (Sigma) for Hek293 and Hela; RPMI-1640 with 10% FBS, 2.05 mM L-glutamine (Sigma), and 55 μM 2-ME (Gibco) for Jurkat T cells and PBMCs). Based on preliminary tests, the number of cells per well was optimized to 2000 for Hela and Hek293, 6000 for Jurkat T cells, and 15,000 for PBMCs. The stocks of antibiotics were prepared by dissolving in DMSO. As control, the same amount of DMSO was added to the non-treated groups. Serial drug dilutions were prepared in the corresponding medium to provide a total of 9 concentrations up to 300 μM for tetracyclines and up to 900 μM for additional bacterial protein synthesis inhibitors. After drug treatment, 10% CCK-8 (Cell Counting Kit-8, Sigma Aldrich) (10 μl per well) of the total volume was added to the cells and incubated for 1–4 h depending on cell lines (1 h for Hela and Hek293; 3 h for Jurkat T cells; 4 h for PBMCs) before the evaluation of the effect of antibiotics on cell viability. […] Results were visually confirmed under the light microscope. Each treatment was performed in technical repeats. Dose-response curves were plotted, mean ± SEM was shown, and half maximal inhibitory concentration (IC50) values were calculated in GraphPad Prism.

[2] = test system: HeLa cells; assay: Cell viability assay (CCK-8), HeLa cells; format: cell-based; settings: for cell vialibity normalized to Vehicle (DMSO): in % (unit assumed)
Experimental: as §1

[3] = test system: mitochondrial translation in CD4+ and CD8+ T cells; assay: Mito-FUNCAT-FACS assay of mitochondrial translation on activated T cells; format: cell-based, human; settings: per PBMC donor, listed as Pos ctrl
Experimental: Thawed PBMCs were washed with RPMI ( + 10% FBS, 2.05 mM L-glutamine (Sigma), and 55 μM 2-ME (Gibco)) before resting at 37 °C (5% CO2) for 30 min. After counting, cells were resuspended in FACS buffer at a density of 5 × 10^7 cells/ml. T cells were isolated using EasySep™ Human T Cell Isolation Kit (Stemcell Technologies). Purified T cells were counted and 85,000 cells per well seeded onto 96-well U-bottom plates with/without Human T-Activator CD3/CD28 beads (Invitrogen) at a 1:2.8 cell:bead ratio and 10 ng/ml IL-2 (Proteintech) in RPMI-1640 ( + 10% FBS, 2.05 mM L-glutamine (Sigma), and 55 μM 2-ME (Gibco)) for 48 h. To assess mitochondrial translation, activated T cells were washed twice with methionine/cysteine/pyruvate-free DMEM and incubated in methionine-depletion medium (DMEM supplemented with 10% dialyzed FBS, 1× GlutaMAX, 1× sodium pyruvate, and 0.2 mM L-cystine) for 30 min at 37 °C. To inhibit cytosolic translation, anisomycin (100 μg/mL) was added to the medium. For mitochondrial translation inhibition, 100 µg/mL chloramphenicol (309 μM, positive control) or tigecycline (2.5−10 μM) were added to the medium. Cells were then labeled with 50 μM L-homopropargylglycine (HPG) for 3 h at 37 °C, during which time the medium still contained antibiotics.
Following HPG labeling, cells were collected and stained with surface markers (CD4, CD8). Cells were pre-permeabilized with 0.005% digitonin in mitochondria-protective buffer (10 mM HEPES/KOH, 10 mM NaCl, 5 mM MgCl2, 300 mM sucrose, pH 7.5) for 3 min, fixed with 4% paraformaldehyde for 10 min, and fully permeabilized with 0.25% Triton X-100 for 5 min. After blocking with 5% BSA for 10 min, incorporated HPG was detected via copper-catalyzed cycloaddition using 0.05 μM Alexa Fluor 488 picolyl azide (Click-iT™ Plus Alexa Fluor™ 488 Picolyl Azide Toolkit, Gibco) for 30 min at room temperature. Subsequently, the reaction cocktail was removed and cells resuspended in FACS buffer. Flow cytometry was carried out on a BD Celesta (BD Biosciences) and analyzed in FlowJo (TreeStar). Data are presented as fold change relative to negative controls.

O=C(N[C@H](CO)[C@H](O)c1ccc([N+](=O)[O-])cc1)C(Cl)Cl [Chloramphenicol, chloramphenicol] was tested, and the IC50 ([1]; Homo sapiens, 120 h, Jurkat T cells, after 5 days, read-out: IC50 (cell survival)) was 25.9 µM, the “cell vialibity normalized to Vehicle (DMSO)” value (shortened to “cell vialibity normalized”) ([1]; Jurkat 3d, dose 1 μM) was 91.6279 and 94.5323 and 104.434 and 103.886 and 105.55 and the “cell vialibity normalized” value ([1]; Jurkat 3d, dose 5 μM) was 74.0465 and 84.1447 and 84.7132 and 88.5271 and 87.2868. For the same molecule, the “cell vialibity normalized” value ([1]; Jurkat 3d, dose 10 μM) was 63.1628 and 61.0232 and 47.7623 and 47.907 and 61.2196, the “cell vialibity normalized” value ([1]; Jurkat 3d, dose 50 μM) was 13.1266 and 12.4444 and 12.0827 and 12.6408 and 12.4548 and the “cell vialibity normalized” value ([1]; Jurkat 3d, dose 100 μM) was 11.7933 and 11.4419 and 11.2455 and 11.1111 and 11.3282. The “cell vialibity normalized” value ([1]; Jurkat 5d, dose 1 μM) was 106.953 and 119.838 and 129.235 and 117.806 and 137.373, the “cell vialibity normalized” value ([1]; Jurkat 5d, dose 5 μM) was 116.039 and 104.909 and 120.616 and 122.485 and 146.087 and the “cell vialibity normalized” value ([1]; Jurkat 5d, dose 10 μM) was 103.365 and 68.172 and 100.846 and 74.0691 and 124.665. The “cell vialibity normalized” value ([1]; Jurkat 5d, dose 50 μM) was 10.0745 and 7.603 and 8.334 and 7.062 and 9.025, the “cell vialibity normalized” value ([1]; Jurkat 5d, dose 100 μM) was 7.529 and 7.5694 and 7.36 and 6.913 and 8.592 and the “cell vialibity normalized” value ([2]; Hela 3d, dose 1 μM) was 115.472 and 112.907 and 109.149 and 106.395 and 107.336. The “cell vialibity normalized” value ([2]; Hela 3d, dose 5 μM) was 99.7977 and 98.9686 and 95.4348 and 95.1889 and 93.3131, the “cell vialibity normalized” value ([2]; Hela 3d, dose 10 μM) was 85.1565 and 78.1239 and 77.2387 and 77.1403 and 78.8686 and the “cell vialibity normalized” value ([2]; Hela 3d, dose 100 μM) was 10.3486 and 10.3064 and 10.2994 and 10.5805. For the same molecule, the “cell vialibity normalized” value ([2]; Hela 5d, dose 1 μM) was 101.268 and 103.029 and 103.952 and 106.316 and 104.379, the “cell vialibity normalized” value ([2]; Hela 5d, dose 5 μM) was 96.435 and 103.217 and 108.966 and 107.207 and 102.082 and the “cell vialibity normalized” value ([2]; Hela 5d, dose 10 μM) was 98.7408 and 101.357 and 94.3137 and 101.415 and 97.4373. The “cell vialibity normalized” value ([2]; Hela 5d, dose 50 μM) was 38.8993 and 53.367 and 28.3728 and 27.4352 and 29.5718, the “cell vialibity normalized” value ([2]; Hela 5d, dose 100 μM) was 5.6014 and 6.201 and 5.26 and 4.947 and 5.042 and the IC50 ([2]; Homo sapiens, 120 h, HeLa, after 5 days, read-out: IC50 (cell survival)) was 41.7 µM. The “mitochondrial translation (fold change relative to negative control)” value ([3]; CD4, positive control 309 μM) was 0.3672 and 0.3419 and 0.3517 and 0.3014 and the “mitochondrial translation (fold change relative to negative control)” value ([3]; CD8, positive control 309 μM) was 0.3783 and 0.3616 and 0.3857 and 0.2719.
